Data as given in publication PMC3517986 (Biochemical Journal, 2012).
“Also recorded” adds a separate entry of the source.

Key:
WDR5 [1] = biological target: T1, WDR5 (Homo sapiens, UniProt P61964); test: ITC; type: binding
WDR5 [2] = biological target: T1, WDR5; type: binding; details: fluorescence polarization, 40 nM FITC-WIN peptide, 5 μM WDR5, triplicate
SUV39H2 = test: HMT selectivity panel: SUV39H2; type: biochemical, human; details: concentrations up to 100 μM
PRMT5_MEP50 complex = test: HMT selectivity panel: PRMT5; type: biochemical, human; details: concentrations up to 100 μM
EHMT1 = test: HMT selectivity panel: EHMT1; type: biochemical, human; details: concentrations up to 100 μM
[3] = biological target: MLL–WDR5–RbBP5–ASH2L complex (Homo sapiens, UniProt P61964); test: Methyltransferase activity of tetrameric MLL complex; type: biochemical; details: tetrameric MLL complex at 10, 50 and 125 nM; not calculated owing to incomplete fitting
SETD7 = test: HMT selectivity panel: SETD7; type: biochemical, human; details: concentrations up to 100 μM
SETD8 = test: HMT selectivity panel: SETD8; type: biochemical, human; details: concentrations up to 100 μM
G9a = test: HMT selectivity panel: G9a; type: biochemical, human; details: concentrations up to 100 μM
PRMT3 = test: HMT selectivity panel: PRMT3; type: biochemical, human; details: concentrations up to 100 μM
[4] = biological target: MLL–WDR5–RbBP5 core complex (trimeric complex) (Homo sapiens, UniProt P61964); test: Methyltransferase activity of trimeric MLL complex; type: biochemical

| Kd (WDR5 [1]) [µM] | Kdis (Kdisplacement) (WDR5 [2]) [µM] | IC50 relative to trimeric complex [3] | IC50 ([4]; IC50, 125 nM (0.125 μM) trimeric MLL complex) [µM] | IC50 ([4]; IC50, 500 nM trimeric MLL complex) [µM] | IC50 ([4]; IC50, 1000 nM trimeric MLL complex) [µM] | Compound | inhibitory effect (SUV39H2) | inhibitory effect (PRMT5_MEP50 complex) | inhibitory effect (EHMT1) | inhibitory effect (SETD7) | inhibitory effect (SETD8) | inhibitory effect (G9a) | inhibitory effect (PRMT3) |
| --- | --- | --- | --- | --- | --- | --- | --- | --- | --- | --- | --- | --- | --- |
| 5.5 ± 0.6 | 12 ± 1 |  |  |  |  | CN1CCN(c2ccc([N+](=O)[O-])cc2NC(=O)c2ccccc2)CC1 [WDR5-0101, N-(2-(4-methylpiperazin-1-yl)-5 nitrophenyl)benzamide] |  |  |  |  |  |  |  |
| 0.45 ± 0.02 | 3.0 ± 0.1 | significantly higher | 39 ± 10 | 83 ± 10 | 280 ± 12 | COC(=O)c1ccc(N2CCN(C)CC2)c(NC(=O)c2cccc(OC)c2)c1 [WDR5-0103, methyl-3-(3-methoxybenzamido)-4-(4-methylpiperazin-1-yl)benzoate] | no inhibitory effect | no inhibitory effect | no inhibitory effect | no inhibitory effect; also recorded: did not affect methyltransferase activity | no inhibitory effect | no inhibitory effect | no inhibitory effect |
